Literature values in patent US20160176819A1, “ASYMMETRICALLY CHARGED NIR FLUOROPHORES” (Washington University, priority 2014, published 2016).
Several values for one entry are separate records, joined by “and”; a condition that tells them apart may be missing. Equal entries are not always repeated.

Tests used:
[1] = ICG in DMSO, literature values; cited from earlier work
[2] = reference value; cited from earlier work

## CC1(C)C(/C=C/C=C/C=C/C=C2\N(CCCCS(=O)(=O)O)c3ccc4ccccc4c3C2(C)C)=[N+](CCCCS(=O)(=O)[O-])c2ccc3ccccc3c21 [ICG, indocyanine green]
[1]
  fluorescence quantum yield of the reference: 0.12 and 0.22
[2]
  QY of the reference: 23%
